Reference: PubChem BioAssay (NCI)
Several values for one entry are separate records, joined by “and”; a condition that tells them apart may be missing. Identical values can stand only once.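 Results reflect a 48-hour exposure of cells in 96-well plates to compound at five concentrations. Abbreviation: GI50, concentration required for 50% inhibition of growth. TGI: total growth inhibition.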

What was measured:
Experiment in all cases: inhibition of tumour cell growth, NCI panel, 48 h
HOP-62 NSCLC = tested on: HOP-62 NSCLC
KM12 colon = tested on: KM12 colon
MDA-MB-435 = tested on: MDA-MB-435
786-0 renal = tested on: 786-0 renal
NCI-H460 lung = tested on: NCI-H460 lung
MALME-3M melanoma = tested on: MALME-3M melanoma
SK-MEL-2 melanoma = tested on: SK-MEL-2 melanoma
NCI-H522 lung = tested on: NCI-H522 lung
HL-60(TB) leukemia = tested on: HL-60(TB) leukemia
SNB-19 CNS = tested on: SNB-19 CNS

O=c1c2cccc(F)c2sc2c(N3CCNCC3)nc3ccccc3c12
GI50 (HOP-62 NSCLC): 1.38 µM | TGI (HOP-62 NSCLC): 3.1 µM | GI50 (KM12 colon): 1.65 µM | TGI (KM12 colon): 3.17 µM | GI50 (MDA-MB-435): 1.74 µM | TGI (MDA-MB-435): 3.2 µM | GI50 (786-0 renal): 1.74 µM | TGI (786-0 renal): 3.28 µM | GI50 (NCI-H460 lung): 1.02 µM | TGI (NCI-H460 lung): 2.34 µM | GI50 (MALME-3M melanoma): 1.67 µM | TGI (MALME-3M melanoma): 3.07 µM | GI50 (SK-MEL-2 melanoma): 1.76 µM | TGI (SK-MEL-2 melanoma): 3.46 µM | GI50 (NCI-H522 lung): 1.45 µM | TGI (NCI-H522 lung): 3.18 µM | GI50 (HL-60(TB) leukemia): 1.76 µM | TGI (HL-60(TB) leukemia): 3.44 µM

CCOC(=O)c1ccc2c(c1)nc(/C=C/c1ccc(Cl)cc1)n2-c1cc(C(C)(C)C)[nH]n1
GI50 (HOP-62 NSCLC): 5.24 µM | TGI (HOP-62 NSCLC): 28.8 µM | GI50 (KM12 colon): 12.9 µM | TGI (KM12 colon): > 100 µM | GI50 (MDA-MB-435): 10.5 µM | TGI (MDA-MB-435): > 100 µM | GI50 (786-0 renal): 2.98 µM | TGI (786-0 renal): 9.29 µM | GI50 (NCI-H460 lung): 6.28 µM | TGI (NCI-H460 lung): > 100 µM | GI50 (MALME-3M melanoma): 2.8 µM | TGI (MALME-3M melanoma): 18.5 µM | GI50 (SNB-19 CNS): 5.93 µM | TGI (SNB-19 CNS): > 100 µM | GI50 (NCI-H522 lung): 2.84 µM | TGI (NCI-H522 lung): 10.6 µM | GI50 (HL-60(TB) leukemia): 39.9 µM | TGI (HL-60(TB) leukemia): > 100 µM

CSc1ccc2c(c1)N(CCC1CCCCN1C)c1ccccc1S2 (centres undefined)
GI50 (HOP-62 NSCLC): 9.08 µM and 9.59 µM | TGI (HOP-62 NSCLC): 24 µM and 25.9 µM | GI50 (KM12 colon): 6.3 µM and 4.16 µM | TGI (KM12 colon): 18.8 µM and 16.1 µM | GI50 (MDA-MB-435): 3.48 µM and 3.1 µM | TGI (MDA-MB-435): 13.6 µM and 11.1 µM | GI50 (786-0 renal): 11.7 µM and 4.92 µM | TGI (786-0 renal): 25.7 µM and 19.4 µM | GI50 (NCI-H460 lung): 4.52 µM and 2.03 µM | TGI (NCI-H460 lung): 17.9 µM and 4.28 µM | GI50 (MALME-3M melanoma): 6.91 µM and 1.67 µM | TGI (MALME-3M melanoma): 23.8 µM and 3.67 µM | GI50 (SK-MEL-2 melanoma): 10.7 µM | TGI (SK-MEL-2 melanoma): 25.8 µM | GI50 (NCI-H522 lung): 6.29 µM | TGI (NCI-H522 lung): 21.8 µM | GI50 (HL-60(TB) leukemia): 13.4 µM and 3.12 µM | TGI (HL-60(TB) leukemia): 30.3 µM and 9.22 µM

COc1ccc2c(c1)C1OCCNC1CC2 (centres undefined)
TGI (HOP-62 NSCLC): > 100 µM | TGI (KM12 colon): > 100 µM | TGI (MDA-MB-435): > 100 µM | TGI (786-0 renal): > 100 µM | TGI (MALME-3M melanoma): > 100 µM | TGI (SNB-19 CNS): > 100 µM | TGI (SK-MEL-2 melanoma): > 100 µM | TGI (NCI-H522 lung): > 100 µM | TGI (HL-60(TB) leukemia): > 100 µM

NCCCCCCCCCCCn1c2c(c3ccccc3c1=O)C(=O)c1ccccc1-2
GI50 (HOP-62 NSCLC): 2.19 µM | TGI (HOP-62 NSCLC): 4.83 µM | GI50 (KM12 colon): 3.95 µM | TGI (KM12 colon): 37.8 µM | GI50 (MDA-MB-435): 11 µM | TGI (MDA-MB-435): 47.9 µM | GI50 (786-0 renal): 19.9 µM | TGI (786-0 renal): 46.9 µM | GI50 (NCI-H460 lung): 4.26 µM | TGI (NCI-H460 lung): 29.7 µM | GI50 (MALME-3M melanoma): 16.7 µM | TGI (MALME-3M melanoma): 53.6 µM | GI50 (SNB-19 CNS): 6.77 µM | TGI (SNB-19 CNS): 38.9 µM | GI50 (NCI-H522 lung): 3.39 µM | TGI (NCI-H522 lung): 10.4 µM | GI50 (HL-60(TB) leukemia): 6.28 µM | TGI (HL-60(TB) leukemia): 20.4 µM

O=C1C(=O)c2ccccc2C(O)=C1CCCc1ccc(C2CCCC2)cc1
GI50 (HOP-62 NSCLC): 8.04 µM | TGI (HOP-62 NSCLC): 23.6 µM | GI50 (KM12 colon): 5.1 µM | TGI (KM12 colon): 25.1 µM | GI50 (MDA-MB-435): 5.1 µM | TGI (MDA-MB-435): 38.8 µM | GI50 (786-0 renal): 4.02 µM | TGI (786-0 renal): 21.4 µM | GI50 (NCI-H460 lung): 3.11 µM | TGI (NCI-H460 lung): 11.8 µM | GI50 (MALME-3M melanoma): 6.55 µM | TGI (MALME-3M melanoma): 38 µM | GI50 (SK-MEL-2 melanoma): 7.2 µM | TGI (SK-MEL-2 melanoma): 32.7 µM | GI50 (NCI-H522 lung): 5.01 µM | TGI (NCI-H522 lung): 25.9 µM | GI50 (HL-60(TB) leukemia): 2.9 µM | TGI (HL-60(TB) leukemia): 6.92 µM

c1ccc(CN2CCC3(CC2)SSC2(CCN(Cc4ccccc4)CC2)SS3)cc1
TGI (HOP-62 NSCLC): > 100 µM | TGI (KM12 colon): > 100 µM | TGI (MDA-MB-435): > 100 µM | TGI (786-0 renal): > 100 µM | TGI (NCI-H460 lung): > 100 µM | TGI (MALME-3M melanoma): > 100 µM | TGI (SNB-19 CNS): > 100 µM | TGI (SK-MEL-2 melanoma): > 100 µM | TGI (NCI-H522 lung): > 100 µM

CC1(C)CCCC(C)(C2CCC3(C)C2C(O)CC2C4(C)CCC(O)C(C)(C)C4C(O)CC23C)O1 (centres undefined)
TGI (KM12 colon): 24.7 µM | TGI (MDA-MB-435): 30.3 µM | TGI (786-0 renal): 72.5 µM | TGI (NCI-H460 lung): 25.3 µM | TGI (MALME-3M melanoma): 50.1 µM | TGI (SNB-19 CNS): 25.5 µM | TGI (SK-MEL-2 melanoma): 28 µM | TGI (NCI-H522 lung): 29.8 µM | TGI (HL-60(TB) leukemia): 5.44 µM

CC(=O)c1ccc(Nc2nc(Nc3ccc(F)cc3)nc(Nc3ccc(F)cc3)n2)cc1
GI50 (HOP-62 NSCLC): 13.7 µM | TGI (HOP-62 NSCLC): 32.5 µM | GI50 (KM12 colon): 8.67 µM | TGI (KM12 colon): 97.9 µM | GI50 (MDA-MB-435): 3.24 µM | TGI (MDA-MB-435): > 100 µM | GI50 (786-0 renal): 14.1 µM | TGI (786-0 renal): 32.5 µM | GI50 (NCI-H460 lung): 8.65 µM | TGI (NCI-H460 lung): > 100 µM | GI50 (MALME-3M melanoma): 6.73 µM | TGI (MALME-3M melanoma): 42.1 µM | GI50 (SNB-19 CNS): 16.4 µM | TGI (SNB-19 CNS): 53.8 µM | GI50 (SK-MEL-2 melanoma): 10.1 µM | TGI (SK-MEL-2 melanoma): 40.3 µM | GI50 (NCI-H522 lung): 10.4 µM | TGI (NCI-H522 lung): 41.3 µM

CCCCCCCCCCCCCCCC(=O)N[C@H](/C=C/[C@H](O)CCCCCCCCCCCCC)CO
GI50 (HOP-62 NSCLC): > 100 µM | TGI (HOP-62 NSCLC): > 100 µM | GI50 (KM12 colon): > 100 µM | TGI (KM12 colon): > 100 µM | GI50 (MDA-MB-435): > 100 µM | TGI (MDA-MB-435): > 100 µM | GI50 (786-0 renal): > 100 µM | TGI (786-0 renal): > 100 µM | GI50 (NCI-H460 lung): > 100 µM | TGI (NCI-H460 lung): > 100 µM | GI50 (MALME-3M melanoma): > 100 µM | TGI (MALME-3M melanoma): > 100 µM | GI50 (SNB-19 CNS): > 100 µM | TGI (SNB-19 CNS): > 100 µM | GI50 (NCI-H522 lung): > 100 µM | TGI (NCI-H522 lung): > 100 µM | GI50 (HL-60(TB) leukemia): > 100 µM | TGI (HL-60(TB) leukemia): > 100 µM

COC(=O)c1ccc2c(c1)C(=O)c1c-2n(C)c(=O)c2cc(OC)c(OC)cc12
GI50 (HOP-62 NSCLC): 17.7 µM | TGI (HOP-62 NSCLC): > 50 µM | GI50 (KM12 colon): > 50 µM | TGI (KM12 colon): > 50 µM | GI50 (MDA-MB-435): > 50 µM | TGI (MDA-MB-435): > 50 µM | GI50 (786-0 renal): 21.8 µM | TGI (786-0 renal): > 50 µM | GI50 (NCI-H460 lung): > 50 µM | TGI (NCI-H460 lung): > 50 µM | GI50 (MALME-3M melanoma): > 50 µM | TGI (MALME-3M melanoma): > 50 µM | GI50 (SNB-19 CNS): > 50 µM | TGI (SNB-19 CNS): > 50 µM | GI50 (SK-MEL-2 melanoma): 37.8 µM | TGI (SK-MEL-2 melanoma): > 50 µM | GI50 (NCI-H522 lung): > 50 µM | TGI (NCI-H522 lung): > 50 µM

CCCCCc1cc[n+](CC(=O)c2ccc([N+](=O)[O-])cc2)cc1
GI50 (HOP-62 NSCLC): 3.94 µM | TGI (HOP-62 NSCLC): 28.3 µM | GI50 (KM12 colon): 3.69 µM | TGI (KM12 colon): 14.1 µM | GI50 (MDA-MB-435): 3.7 µM | TGI (MDA-MB-435): 14.6 µM | GI50 (786-0 renal): 20.1 µM | TGI (786-0 renal): 74.2 µM | GI50 (NCI-H460 lung): 3.09 µM | TGI (NCI-H460 lung): 11.6 µM | GI50 (MALME-3M melanoma): 2.15 µM | TGI (MALME-3M melanoma): 8 µM | GI50 (SNB-19 CNS): 8.01 µM | TGI (SNB-19 CNS): > 100 µM | GI50 (SK-MEL-2 melanoma): 2.7 µM | TGI (SK-MEL-2 melanoma): 8.66 µM | GI50 (NCI-H522 lung): 1.8 µM | TGI (NCI-H522 lung): 8.53 µM
